Where two headings read alike, the source gives them in different places.
Tests used:
[1] = system: A549; assay: MTT cytotoxicity assay; type: cell-based; settings: Homo sapiens, 48 h, mean ± SD
Protocol: (§1) HepG2 and Hep3B (human hepatoma cells), Bcap37 and MCF-7 (human breast cancer cells), TE-1 (human esophageal cancer cells), A549 (human lung carcinoma cells), U251 and U87 (human glioma cells), were cultured in Dulbecco’s modified Eagle’s medium (DMEM) supplemented with 10% fetal bovine serum (FBS) and 1% penicillin/streptomycin (10000 U/mL penicillin, 10000 μg/ml streptomycin). SH-SY5Y (human neuroblastoma cells), LO2 (human normal liver cell) were grown in RPMI 1640 containing 10% FBS and 100 µg/ml penicillin, 100 µg/ml streptomycin. HepG2, Hep3B, MCF-7, TE-1, A549, U87, U251 and SHSY5Y cells were obtained from the American Type Culture Collection (Manassas, VA, USA). Bcap37 and LO2 cells were purchased from the Cell Bank of Chinese Academy of Sciences (Shanghai, China). All cells were incubated in a humidified atmosphere containing 5% CO2 at 37 °C.
(§2) Cells seeded in 96-well plates with 5 × 10^3 cells/well were adhered overnight and incubated with vehicle control (DMSO) or diverse concentrations of compounds for 48 h. After treatment, 20 μL of MTT (5 mg/mL) was added to each well and incubated for another 4 h at 37 °C. Then, 150 μL of DMSO/well was appended after removed the supernatant to dissolve the formed purple formazan crystals and the color absorbance was measured at 490 nm using a microplate reader (Molecular Devices, Thermo, CA, USA). The inhibition rate (%) was calculated as (A490(control) − A490(drug groups))/(A490(control) − A490(blank)) × 100 and the value of IC50 (the concentration that caused 50% inhibition of cell viability) was determined using SPSS 20.0. This experiment was measured in triplicate, independently.

[2] = system: MCF-7; assay: MTT cytotoxicity assay; type: cell-based; settings: Homo sapiens, MCF7, 48 h, mean ± SD
Protocol: as §1, §2

[3] = system: Bcap37; assay: MTT cytotoxicity assay; type: cell-based; settings: Homo sapiens, 48 h, mean ± SD
Protocol: as §1, §2

[4] = system: SH-SY5Y; assay: MTT cytotoxicity assay; type: cell-based; settings: Homo sapiens, 48 h, mean ± SD
Protocol: as §1, §2

[5] = system: U87; assay: MTT cytotoxicity assay; type: cell-based; settings: Homo sapiens, U-87 MG, 48 h, mean ± SD
Protocol: as §1, §2

[6] = system: U251; assay: MTT cytotoxicity assay; type: cell-based; settings: Homo sapiens, U-251, 48 h, mean ± SD
Protocol: as §1, §2

[7] = system: TE-1; assay: MTT cytotoxicity assay; type: cell-based; settings: Homo sapiens, 48 h, mean ± SD
Protocol: as §1, §2

[8] = system: HepG2; assay: MTT cytotoxicity assay; type: cell-based, human; settings: for IC50: Homo sapiens, HepG2, MTT, 48 h, mean ± SD; for effect of inhibitor on the reduction of cell viability by daphnegiravone D: HepG2, MTT, pretreated with 10 μM inhibitor 1 h, then 10 μM daphnegiravone D 48 h
Protocol: as §1, §2

[9] = system: Hep3B; assay: MTT cytotoxicity assay; type: cell-based, human; settings: for IC50: Homo sapiens, 48 h, mean ± SD; for effect of inhibitor on the reduction of cell viability by daphnegiravone D: pretreated with 10 μM inhibitor 1 h, then 2 μM daphnegiravone D 48 h
Protocol: as §1, §2

[10] = system: LO2; assay: MTT cytotoxicity assay, normal hepatic cells; type: cell-based; settings: Homo sapiens, L02, 48 h, mean ± SD
Protocol: as §1, §2

[11] = system: nine human cancer cell lines and one normal hepatic cell line; assay: MTT cytotoxicity assay, summary over the cell line panel; type: cell-based
Protocol: as §1, §2

[12] = system: HepG2 cells; set-up: method as in PMID 25446044; settings: cited from earlier work
[13] = most cancer cell lines, read-out: IC50 values against most cancer cell lines
[14] = most cell lines, read-out: IC50 values against most cell lines

Row | Compound | IC50 [1] [µM] | IC50 [2] [µM] | IC50 [3] [µM] | IC50 [4] [µM] | IC50 [5] [µM] | IC50 [6] [µM] | IC50 [7] [µM] | IC50 [8] [µM] | IC50 [9] [µM] | IC50 [10] [µM] | IC50 [11, 13] [µM] | IC50 [11, 14] [µM] | effect of inhibitor on the reduction of cell viability by daphnegiravone D [8] | effect of inhibitor on the reduction of cell viability by daphnegiravone D [9] | inhibitory effect on HepG2 cells [12]
1 | COc1c(-c2ccc(O)c(O)c2)oc2c(CC=C(C)C)c(O)c(CC=C(C)C)c(O)c2c1=O [Compound 2, broussoflavonol B] | 15 ± 1.21 | 19.2 ± 1.76 | 42.4 ± 4.83 | 13.5 ± 0.95 | 20.3 ± 2.08 | 19.8 ± 1.53 | 20 ± 2.3 | 26.1 ± 1.89 | 14.2 ± 1.56 | 22.4 ± 2.63 | ~20 | – | – | – | –
2 | CC(C)=CCc1c(-c2ccc(O)cc2O)oc2c3c(cc(O)c2c1=O)OC(C)(C)C=C3 [Compound 3, morusin] | 23.9 ± 1.97 | 13.5 ± 2.51 | 31 ± 2.34 | 45.4 ± 3.24 | 23.4 ± 2.79 | 17.1 ± 2.22 | 22.8 ± 1.79 | 9.76 ± 0.94 | 14.2 ± 1.87 | 28.2 ± 3.14 | ~20 | – | – | – | –
3 | COc1c(-c2cc(O)c3c(c2)C=CC(C)(C)O3)oc2c(CC=C(C)C)c(O)cc(O)c2c1=O [Compound 4, daphnegiravone A] | 66.8 ± 4.3 | > 100 | > 100 | 74.4 ± 4.87 | 71 ± 4.36 | > 100 | > 100 | 36.7 ± 2.21 | > 100 | > 100 | – | > 50 | – | – | –
4 | CC(C)=CCc1cc([C@@H]2CC(=O)c3ccc(O)cc3O2)c2c(c1O)OC(C)(C)CC2 [Compound 5, daphnegiravone C] | 20 ± 1.31 | > 100 | > 100 | 54.8 ± 3.72 | 49.9 ± 3.87 | > 100 | > 100 | > 100 | 55.4 ± 3.97 | > 100 | – | > 50 | – | – | –
5 | O=c1[nH]cc(F)c(=O)[nH]1 [Compound 5FU, 5-Fluorouracil, reference compound] | 31.9 ± 2.74 | 42.3 ± 3.03 | 44.1 ± 3.82 | 18.6 ± 1.38 | 20.2 ± 1.98 | 42.6 ± 3.49 | 26.7 ± 2.01 | 47.1 ± 3.68 | 10.4 ± 1.44 | 31.9 ± 3.78 | – | – | – | – | –
6 | C[S+]([O-])c1ccc(-c2nc(-c3ccncc3)c(-c3ccc(F)cc3)[nH]2)cc1 (centres unmarked) [SB203580, reference compound] | – | – | – | – | – | – | – | – | – | – | – | – | abolished | abolished | –
7 | Oc1c2ccccc2c2c3c(cccc13)N=N2 [SP600125, reference compound] | – | – | – | – | – | – | – | – | – | – | – | – | exacerbated | exacerbated | –
8 | Kurzphenol C | – | – | – | – | – | – | – | – | – | – | – | – | – | – | weak inhibitory effect

Source: article PMC5515844, “A new Prenylated Flavonoid induces G0/G1 arrest and apoptosis through p38/JNK MAPK pathways in Human Hepatocellular Carcinoma cells” (Scientific Reports, 2017)
